“And” between values parts separate entries of the source, which are not always exact repeats. Identical values can stand only once.
How the values were obtained:
Format in all cases: in vivo
[1] = system: FAS; assay: Short-term Paigen-diet NASH mouse model: hepatic FAS gene expression (RT-qPCR); settings: FAS relative expression to vehicle group, 21 days
Method: (§1) To investigate whether Compound #37 prevents the development of pathology associated with NASH and steatosis in an acute exploratory disease model, a study was conducted using a diet-induced acute liver steatosis model in mice. As described below, in this study, C57BL/6J mice were initiated on the Paigen diet and simultaneously treated with Compound #37 (5, 20, and 40 mg/kg/day) or vehicle control (20% HPβCD 10 mL/kg/day) by oral gavage for 21 days.
(§2) After acclimation, 8-week old male C57Bl/6J mice (Charles River) weighing about 25 g were randomized in 4 groups according their body weight and treated once daily around noon by oral gavage with vehicle, or Compound #37 at various for 21 days as follows: Group 1: vehicle-20% (2-hydroxypropyl)-β-cyclodextrin (HP-β-CD) (n=10); Group 2: Compound #37, 5 mg/kg (n=10) Group 3: Compound #37, 20 mg/kg (n=10) Group 4: Compound #37, 40 mg/kg (n=10). During the treatment period, body weight and food intake (measured over 24h) were measured 3 times per week and once a week, respectively. During the acclimation, all mice were fed a standard diet (Special Diets Services RM1 (E), product no. 801492) and tap water ad libitum. After the acclimation period, mice were fed until the end of the experiment with a 60% high fat Paigen diet (60 kcal % fat, 1.25% cholesterol, and 0.5% cholate; D11061901, Research Diet) and tap water ad libitum.
(§3) Gene expression analysis. Hepatic expression levels of genes involved in lipid metabolism (FAS, SREBP1, ACC1, SCD1), cholesterol metabolism (HMG-CoAR, LDLR), SREBP proteolysis (SCAP, INSIG1), ER stress (PERK), oxidative stress (NRF2), inflammation (MCP-1), and fibrosis (collagen 1α1) were quantified by RTqPCR. Expression level was normalized to 18S gene expression and relative expression to vehicle group was calculated with the […] method.

[2] = system: MCP-1; assay: Short-term Paigen-diet NASH mouse model: hepatic MCP-1 gene expression (RT-qPCR); design: key to MCP-1 gene expression: 2DDct: expression relative to vehicle group, normalized to 18S (2^-ΔΔCt); key to MCP-1 gene expression: DDct: ΔCt (vs 18S) relative to vehicle group; settings: 21 days
Method: as §1
as §2, with “([…])” for “(n=10) Group 3: Compound #37, 20 mg/kg (n=10)”
as §3

[3] = system: SCAP; assay: DIN mouse model: hepatic SCAP gene expression; design: key to 2^DDct: expression relative to vehicle group, normalized to 18S; settings: 20 mg/kg group; for 18S: Gene Expression: SCAP table, 18S reference; for 2^DDct / DDct / Dct / SCAP: Gene Expression: SCAP
Method: as §3
(§4) Male C57Bl/6J mice (8 weeks old) were housed in enriched ventilated cages (31×12.5×12.7 cm) throughout the experimental phase. Animals' cages litters were changed at least once a week. Animal were housed 5 per cage on inverted 12-hour light cycle (at 09:00 am lights off), 22±2° C. and 55±10% relative humidity. The acclimation period was 20 days. During the acclimation period, all mice were fed a standard diet (RM1 (E) 801492, SDS) and tap water ad libitum. After the acclimation period, mice were fed with the DIN diet (60% fat, cholesterol enriched) and fructose-enriched tap water ad libitum until the end of the experiment.
(§5) At 6 weeks of diet, mice were 4-hour fasted (09:00 am to 1:00 pm) and blood (150 μl/EDTA) was collected at 01:00 pm by retro-orbital bleeding under isoflurane anesthesia. Mice were then allocated in 2 homogenous groups (n=12/group) according to their plasma levels of ALT (average levels: 685U/L), AST (average levels: 627U/L) and HOMA-IR index (average value: 4.7), into 2 homogenous groups (see values at day 0 in Tables 15A and 15B ALT/AST and Tables 16A and 16B for HOMA-IR). Mice were then treated once daily by oral gavage with vehicle (Group 1) or Compound #37 at 20 mg/kg (Group 2) for 70 days.
(§6) Hepatic expression levels of genes involved in lipid (FAS, SREBP1, ACC1, SCD1), cholesterol metabolism (HMG-CoAR, LDLR), in SREBP proteolysis (SCAP, INSIG1), in ER stress (PERK), oxidative stress (NRF2), and inflammation (MCP-1) were not changed. However, expression of collagen 1α1, involved in liver fibrosis, was reduced by 66% in mice treated with Compound #37 (p<0.05 vs. vehicle).

[4] = system: MCP-1; assay: DIN mouse model: hepatic MCP-1 gene expression; settings: liver, 20 mg/kg group
Method: as §3, §4, §5, §6

[5] = individual animals, vs vehicle mean, 20 mg/kg

**Q.** With `CC(C)Cc1cc(-c2nc(-c3ccc(NS(=O)(=O)C(F)(F)F)cc3Cl)cs2)ccn1` [Compound 37, N-(3-chloro-4-(2-(2-isobutylpyridin-4-yl)thiazol-4-yl)phenyl)-1,1,1-trifluoromethanesulfonamide] as the compound, how does the 2DDct ([1]; 5 mg/kg, group mean) read?
**A.** 1.12

**Q.** What about the 2DDct ([1]; 5 mg/kg, individual animals, 5 mg/kg) of the same compound?
**A.** 2.2 and 1.54 and 1.55 and 2.34 and 0.68 and 0.39 and 0.91 and 0.65 and 0.33 and 0.59

**Q.** And the 2DDct ([1]; 20 mg/kg, group mean)?
**A.** 1.18

**Q.** What about the 2DDct ([1]; 20 mg/kg, individual animals, 20 mg/kg) of the same compound?
**A.** 1.48 and 0.56 and 0.63 and 1.65 and 0.9 and 1.88

**Q.** What about the “MCP-1 gene expression: 2DDct” value ([2]; 5 mg/kg, group mean, n 10) of the same compound?
**A.** 0.74

**Q.** And the “MCP-1 gene expression: DDct” value ([2]; 5 mg/kg, group mean, n 10)?
**A.** 0.62

**Q.** And the “MCP-1 gene expression: Dct” value ([2]; 5 mg/kg, group mean, n 10)?
**A.** 13.9

**Q.** What about the “MCP-1 gene expression: MCP-1” value ([2]; 5 mg/kg, group mean, n 10) of the same compound?
**A.** 26.2

**Q.** What about the “MCP-1 gene expression: 2DDct” value ([2]; 5 mg/kg, individual animals) of the same compound?
**A.** 1.08 and 0.98 and 0.28 and 1.4 and 0.5 and 0.46 and 0.85 and 1.04 and 0.48 and 0.33

**Q.** What about the “MCP-1 gene expression: DDct” value ([2]; 5 mg/kg, individual animals) of the same compound?
**A.** −0.11 and 0.03 and 1.82 and −0.49 and 0.99 and 1.11 and 0.24 and −0.06 and 1.07 and 1.59

**Q.** And the “MCP-1 gene expression: Dct” value ([2]; 5 mg/kg, individual animals)?
**A.** 13.2 and 13.36 and 15.15 and 12.84 and 14.32 and 14.44 and 13.57 and 13.27 and 14.4 and 14.92

**Q.** And the “MCP-1 gene expression: MCP-1” value ([2]; 5 mg/kg, individual animals)?
**A.** 26.68 and 26.47 and 26.76 and 26.19 and 26.35 and 27.79 and 25.17 and 25.06 and 25.54 and 26.04

**Q.** What about the “MCP-1 gene expression: 2DDct” value ([2]; 20 mg/kg, group mean, n 6) of the same compound?
**A.** 2.15

**Q.** And the “MCP-1 gene expression: DDct” value ([2]; 20 mg/kg, group mean, n 6)?
**A.** −0.5

**Q.** What about the “MCP-1 gene expression: Dct” value ([2]; 20 mg/kg, group mean, n 6) of the same compound?
**A.** 12.8

**Q.** And the “MCP-1 gene expression: MCP-1” value ([2]; 20 mg/kg, group mean, n 6)?
**A.** 25

**Q.** What about the “MCP-1 gene expression: 2DDct” value ([2]; 20 mg/kg, individual animals) of the same compound?
**A.** 1.27 and 2.99 and 4.08 and 3.73 and 0.54 and 0.26

**Q.** What about the “MCP-1 gene expression: DDct” value ([2]; 20 mg/kg, individual animals) of the same compound?
**A.** −0.35 and −1.58 and −2.03 and −1.9 and 0.88 and 1.95

**Q.** What about the “MCP-1 gene expression: Dct” value ([2]; 20 mg/kg, individual animals) of the same compound?
**A.** 12.98 and 11.75 and 11.3 and 11.43 and 14.21 and 15.28

**Q.** What about the “MCP-1 gene expression: MCP-1” value ([2]; 20 mg/kg, individual animals) of the same compound?
**A.** 25.89 and 24.04 and 23.5 and 24.46 and 25.7 and 26.54

**Q.** And the 18S ([3]; individual animal, 20 mg/kg)?
**A.** 12.55 (2×) and 12.84 and 12.43 and 12.35 (2×) and 12.59 and 11.73 and 12.51 and 11.5 and 11.55

**Q.** What about the 18S ([3]; mean, n 11) of the same compound?
**A.** 12.3

**Q.** What about the “2^DDct” value ([3]; individual animal, 20 mg/kg) of the same compound?
**A.** 1.37 and 1.72 (2×) and 0.65 and 0.71 and 0.91 and 1.46 and 1.39 and 0.64 and 0.59 and 1.60

**Q.** And the DDct ([3]; individual animal, 20 mg/kg)?
**A.** −0.45 and −0.78 (2×) and 0.63 and 0.49 and 0.13 and −0.54 and −0.47 and 0.65 and 0.77 and −0.68

**Q.** What about the Dct ([3]; individual animal, 20 mg/kg) of the same compound?
**A.** 11.61 and 11.28 (2×) and 12.69 and 12.55 and 12.19 and 11.52 and 11.59 and 12.71 and 12.83 and 11.38

**Q.** What about the SCAP ([3]; individual animal, 20 mg/kg) of the same compound?
**A.** 24.16 and 23.83 and 25.53 and 24.98 and 24.54 and 24.11 and 23.32 and 23.79 and 24.21 and 24.38 and 23.73

**Q.** What about the “2^DDct” value ([3]; mean, n 11) of the same compound?
**A.** 1.16

**Q.** And the DDct ([3]; mean, n 11)?
**A.** −0.10

**Q.** And the Dct ([3]; mean, n 11)?
**A.** 12.0

**Q.** What about the SCAP ([3]; mean, n 11) of the same compound?
**A.** 24.2

**Q.** What about the “MCP-1 Dct” value ([4]; individual animals, normalised to 18S, 20 mg/kg) of the same compound?
**A.** 14.34 and 13.63 and 15.61 and 13.59 and 13.54 and 13.66 and 14.89 and 16.32 and 15.5 and 15.74 and 11.79

**Q.** And the “MCP-1 2^DDct” value [4, 5]?
**A.** 0.61 and 0.99 and 0.25 and 1.02 and 1.06 and 0.97 and 0.41 and 0.15 and 0.27 and 0.23 and 3.55

**Q.** What about the “MCP-1 DDct” value [4, 5] of the same compound?
**A.** 0.72 and 0.01 and 1.99 and −0.03 and −0.08 and 0.04 and 1.27 and 2.7 and 1.88 and 2.12 and −1.83

**Q.** And the “MCP-1 (Ct)” value ([4]; individual animals, 20 mg/kg)?
**A.** 26.89 and 26.18 and 28.45 and 26.02 and 25.89 and 26.25 and 26.62 and 28.83 and 27 and 27.29 and 24.14

**Q.** And the “MCP-1 2^DDct” value ([4]; mean, n 11)?
**A.** 0.87

**Q.** What about the “MCP-1 (Ct)” value ([4]; mean, n 11) of the same compound?
**A.** 26.7

**Q.** And the “MCP-1 DDct” value ([4]; mean, n 11)?
**A.** 0.80

**Q.** What about the “MCP-1 Dct” value ([4]; mean, n 11) of the same compound?
**A.** 14.4
